Values joined by “and” are separate entries in the source; they are usually repeats but may differ in a detail not shown here. Equal values may be shown once. Where a name gives a salt, the structure may show the parent alone.
Experiment: Pharmacokinetics (lactone form, HPLC, non-compartmental) in plasma and urine, days 1 and 4 of first course
Excerpt: British Journal of Cancer (1996) 73, 744-750 O (C? 1996 Stockton Press All rights reserved 0007-0920/96 $12.00 Phase I and pharmacological study of the new topoisomerase I inhibitor G1147211, using a daily x 5 intravenous administration CJH Gerrits', GJ Creemers', JHM Schellens', P Wissel2, AS Th Planting', R Kunka2, K Selinger2, M de Boer-Dennert', Y Marijnen3, M Harteveld' and J Verweijl 'Department of Medical Oncology, Rotterdam Cancer Institute, Rotterdam, The Netherlands; 2Glaxo Wellcome Inc, Department of Clinical Pharmacology, NC, USA; 3Glaxo Wellcome Inc, Department of Clinical Research, Zeist, The Netherlands. Summary Topoisomerase I inhibitors are interesting anti-cancer agents with a novel mechanism of action. […] In subsequent patient cohorts the dose was escalated from 0.3 to 1.5 mg m-2 day-'. Pharmacokinetics analysis was performed on days 1 and 4 of the first course using a validated high- performance liquid chromatographic assay and non-compartmental methods. […] Its further development was stopped because of unpredictable and severe myelosuppression, gastrointestinal toxicity and haemorrhagic cystitis. In the late 1980s two discoveries brought about a renewal of interest in CPT; firstly, topoisomerase I was identified as the single cellular target of CPT (Hsiang et al., 1985; Hsiang and Liu, 1988) and, secondly, an overexpression of topoisomerase I was found in various tumour cell lines but not in normal tissues (Giovanella et al., 1989; Hirabayaski et al., 1992; Potmesil et al., 1988). Topoisomerase I is a nuclear enzyme that resolves topological problems of the torsionally strained (supercoiled) DNA (Slichenmyer et al., 1993). This is achieved by forming a covalent adduct between topoisome- rase I and the DNA, termed the cleavable complex. This catalytic intermediate creates single-strand DNA breaks, allowing the DNA molecule to rotate around the intact DNA strand at the cleavage site, leading to a relaxation of the DNA molecule and in this way replication, transcription and other DNA functions can proceed. These enzyme- bridged breaks are then resealed by topoisomerase I. CPT stabilises the cleavable complexes, thereby preventing resealing of single-strand DNA breaks in the presence of the drug (Covey et al., 1989; D'Arpa and Liu, 1989; Eng et al., 1988). Cytotoxicity is specific to the S-phase of the cell cycle because the double-strand breaks that occur during this phase are more difficult to repair in the presence of the drug (Horwitz and Horwitz, 1973). […] Other eligibility criteria included: (1) age>, 18 years; (2) an Eastern Cooperative Oncology Group (ECOG) performance status <2; (3) a predicted life expectancy of at least 3 months; (4) no previous anti-cancer therapy for at least 3 weeks (6 weeks for previous nitro- soureas or mitomycin C); (5) adequate haemato- poietic (WBC) 3 x 109 -', ANC > 1.5 x 109 1-' and platelets 100 x 10 1- 1), hepatic (bilirubin within normal limits, AST, ALT and/or alkaline phosphatase < 2.0 x normal), and renal (serum creatinine < 130 imol 1-') functions. All patients gave written informed consent.

[1] = 0.3 mg m-2, day 1, individual patients 1-3 in order
[2] = 0.3 mg m-2, day 1, mean of dose level
[3] = 0.3 mg m-2, day 4, individual patients 1-3 in order
[4] = 0.3 mg m-2, day 4, mean of dose level
[5] = 0.6 mg m-2, day 1, individual patients 4-6 in order
[6] = 0.6 mg m-2, day 1, mean of dose level
[7] = 0.6 mg m-2, day 4, individual patients 4-6 in order
[8] = 0.6 mg m-2, day 4, mean of dose level
[9] = 1.2 mg m-2, day 1, individual patients 7-12 in order
[10] = 1.2 mg m-2, day 1, mean of dose level

For `CC[C@@]1(O)C(=O)OCc2c1cc1n(c2=O)Cc2c-1nc1cc3c(cc1c2CN1CCN(C)CC1)OCCO3` [GI147211, [7 - (methylpiperazinomethylene) - 10,11 - ethylene-dioxy-20(S)] camptothecin dihydrochloride], which AUCinf [1] is on record?
The AUCinf was 4.93 ng·h/mL and 4.04 ng·h/mL and 4.77 ng·h/mL.

What about the “Clearance, total plasma clearance” value [1] of the same compound?
The value was 1014 ml min-1 m-2 and 1238 ml min-1 m-2 and 1048 ml min-1 m-2.

And the Cmax [1]?
Its Cmax is 3.63 ng/mL and 4.27 ng/mL and 3.73 ng/mL.

And the MRT [1]?
The MRT was 2.89 h and 1.66 h and 3.33 h.

What about the Vdss [1] of the same compound?
The Vdss was 161 l m-2 and 104 l m-2 and 194 l m-2.

What about the “t1/2, elimination half-life” value [1] of the same compound?
The value was 2.96 h and 1.99 h and 2.63 h.

And the tmax [1]?
The tmax was 0.42 h.

And the “AUCinf, mean” value [2]?
The value was 4.58 ng·h/mL.

And the “Clearance, mean” value [2]?
The value was 1100 ml min-1 m-2.

What about the “Cmax, mean” value [2] of the same compound?
The value was 3.88 ng/mL.

What about the “MRT, mean” value [2] of the same compound?
The value was 2.63 h.

And the “Vdss, mean” value [2]?
Its value is 153 l m-2.

And the “t1/2, mean” value [2]?
The value was 2.52 h.

What about the “tmax, mean” value [2] of the same compound?
Its value is 25.2 min.

What about the AUCinf [3] of the same compound?
Its AUCinf is 6.19 ng·h/mL and 6.79 ng·h/mL and 7.46 ng·h/mL.

And the “Clearance, total plasma clearance” value [3]?
The value was 808 ml min-1 m-2 and 736 ml min-1 m-2 and 670 ml min-1 m-2.

What about the Cmax [3] of the same compound?
The Cmax was 4.73 ng/mL and 4.30 ng/mL and 5.11 ng/mL.

What about the MRT [3] of the same compound?
The MRT was 4.62 h and 4.73 h and 5.30 h.

And the Vdss [3]?
The Vdss was 207 l m-2 and 199 l m-2 (2×).

And the “t1/2, elimination half-life” value [3]?
Its value is 4.82 h and 2.34 h and 3.81 h.

What about the tmax [3] of the same compound?
The tmax was 0.25 h (2×) and 0.42 h.

What about the “AUCinf, mean” value [4] of the same compound?
The value was 6.81 ng·h/mL.

And the “Clearance, mean” value [4]?
The value was 738 ml min-1 m-2.

And the “Cmax, mean” value [4]?
Its value is 4.71 ng/mL.

What about the “MRT, mean” value [4] of the same compound?
The value was 4.88 h.

And the “Vdss, mean” value [4]?
The value was 202 l m-2.

What about the “t1/2, mean” value [4] of the same compound?
Its value is 3.65 h.

And the “tmax, mean” value [4]?
The value was 18.6 min.

And the AUCinf [5]?
The AUCinf was 10.10 ng·h/mL and 15.63 ng·h/mL and 14.00 ng·h/mL.

What about the “Clearance, total plasma clearance” value [5] of the same compound?
Its value is 990 ml min-1 m-2 and 640 ml min-1 m-2 and 714 ml min-1 m-2.

And the Cmax [5]?
The Cmax was 9.16 ng/mL and 9.41 ng/mL and 11.46 ng/mL.

What about the MRT [5] of the same compound?
Its MRT is 4.01 h and 3.74 h and 3.52 h.

What about the Vdss [5] of the same compound?
The Vdss was 223 l m-2 and 134 l m-2 and 140 l m-2.

And the “t1/2, elimination half-life” value [5]?
Its value is 3.35 h and 2.81 h and 2.80 h.

And the tmax [5]?
The tmax was 0.42 h.

What about the “AUCinf, mean” value [6] of the same compound?
Its value is 13.25 ng·h/mL.

What about the “Clearance, mean” value [6] of the same compound?
Its value is 781 ml min-1 m-2.

What about the “Cmax, mean” value [6] of the same compound?
Its value is 10.01 ng/mL.

And the “MRT, mean” value [6]?
The value was 3.76 h.

And the “Vdss, mean” value [6]?
The value was 166 l m-2.

And the “t1/2, mean” value [6]?
The value was 2.98 h.

And the “tmax, mean” value [6]?
The value was 25.2 min.

What about the AUCinf [7] of the same compound?
The AUCinf was 11.21 ng·h/mL and 15.10 ng·h/mL and 15.94 ng·h/mL.

And the “Clearance, total plasma clearance” value [7]?
Its value is 892 ml min-1 m-2 and 662 ml min-1 m-2.

What about the Cmax [7] of the same compound?
Its Cmax is 7.60 ng/mL and 8.13 ng/mL and 9.29 ng/mL.

And the MRT [7]?
Its MRT is 4.89 h and 5.38 h and 6.35 h.

And the Vdss [7]?
The Vdss was 246 l m-2 and 203 l m-2 and 224 l m-2.

And the “t1/2, elimination half-life” value [7]?
Its value is 3.42 h and 3.78 h and 4.15 h.

And the tmax [7]?
The tmax was 0.42 h (2×) and 0.25 h.

And the “AUCinf, mean” value [8]?
Its value is 14.08 ng·h/mL.

And the “Clearance, mean” value [8]?
Its value is 727 ml min-1 m-2.

And the “Cmax, mean” value [8]?
The value was 8.34 ng/mL.

What about the “MRT, mean” value [8] of the same compound?
The value was 5.54 h.

What about the “Vdss, mean” value [8] of the same compound?
The value was 224 l m-2.

What about the “t1/2, mean” value [8] of the same compound?
The value was 3.78 h.

And the “tmax, mean” value [8]?
Its value is 21.6 min.

And the AUCinf [9]?
The AUCinf was 17.57 ng·h/mL and 24.95 ng·h/mL and 16.70 ng·h/mL and 15.05 ng·h/mL and 19.86 ng·h/mL and 19.42 ng·h/mL.

What about the “Clearance, total plasma clearance” value [9] of the same compound?
Its value is 1138 ml min-1 m-2 and 802 ml min-1 m-2 and 1198 ml min-1 m-2 and 1329 ml min-1 m-2 and 1007 ml min-1 m-2 and 1030 ml min-1 m-2.

And the Cmax [9]?
Its Cmax is 17.33 ng/mL and 11.97 ng/mL and 15.99 ng/mL and 12.83 ng/mL and 14.11 ng/mL and 17.65 ng/mL.

What about the MRT [9] of the same compound?
The MRT was 3.01 h and 5.18 h and 2.94 h and 3.04 h and 3.98 h and 2.66 h.

What about the Vdss [9] of the same compound?
Its Vdss is 189 l m-2 and 237 l m-2 and 193 l m-2 and 223 l m-2 and 225 l m-2 and 149 l m-2.

What about the “t1/2, elimination half-life” value [9] of the same compound?
Its value is 3.62 h and 4.04 h and 2.54 h and 2.40 h and 5.10 h and 2.97 h.

And the tmax [9]?
Its tmax is 0.42 h (5×) and 0.25 h.

What about the “AUCinf, mean” value [10] of the same compound?
The value was 18.93 ng·h/mL.

What about the “Clearance, mean” value [10] of the same compound?
The value was 1084 ml min-1 m-2.

— publication PMC2074382 (British Journal of Cancer, 1996)
